Assays:
[1] = system: human ankle cartilage explants; assay: Aggrecan/sGAG biosynthesis rate (35S-sulfate incorporation) in human ankle cartilage explants; assay type: cell-based; conditions: for biosynthesis rate of explants compared to the untreated control: single 39.2 nM dose (equivalent to 300 ng/ml free IGF-1), FIGS. 19A-19B; for sGAG biosynthesis rate: single 500 nM, 1 μM and 2 μM doses, Day 0 to Day 3, both ankle and knee cartilage; for elevated biosynthesis rate after single dose, up to Day 7 / elevated biosynthesis rate after single dose, up to Day 15: single dose not replenished during media changes, FIG. 12 (ankle and knee)
Protocol: Cartilage was harvested from both ankles of a donor (Collins Grade 0). Cartilage explants were equilibrated in culture media for 3 days after harvest. […] These were cut down to 1 mm thickness and allowed to equilibrate for a further 2.5 days before experiments were set up. A dose response experiment and an uptake experiment were set up in parallel.
Subsets of the experiment were terminated at 3 days and 7 days from the start of the experiment. Media changes were performed every 2 to 3 days. 3 doses of free +9 GFP were included as additional controls, which tests whether high doses of the drug delivery carrier has adverse effects on aggrecan biosynthesis rate.
For the 3-day termination experiment, chondrocyte biosynthesis rate (primarily aggrecan synthesis) was measured between days 0 and 3 of the experiment using a 35S-sulfate radiolabel. For the 7-day experiment, this measurement was done between days 5 and 7. Statistics: 1-way ANOVA with post-hoc Tukey's HSD test.
Cartilage was harvested from the ankle of a donor (Collins Grade 1). Cartilage explants were equilibrated in culture media for 2 days after harvest. […] These were cut down to 1 mm thickness and allowed to equilibrate for a further 2.5 days before experiments were set up. A 7-day dose response experiment was set up.
Chondrocyte biosynthesis rate (primarily aggrecan synthesis) was measured between days 5 and 7 of the experiment using a 35S-sulfate radiolabel. Statistics: 1-way ANOVA with post-hoc Tukey's HSD test.
Cartilage explants that were equilibrated in culture medium post-harvest were transferred to ultra-low attachment cell culture plates (Corning) for dose response experiments. All experiments were carried out in low glucose, serum free medium (same composition as equilibration medium). Previous studies studying the effects of IGF-1 on cartilage explants have used doses ranging from 10 ng/ml to 300 ng/ml. Based on these, 300 ng/ml (equivalent to 39.2 nM) of free recombinant human IGF-1 (PeproTech, Rocky Hill, NJ) was used as the positive control.
Since each fusion protein had one IGF-1 domain, equivalent doses (39.2 nM) of these were tested. In addition to this, 500 nM, 1 μM and 2 μM doses of fusion proteins were also tested. In all cases, only a single dose of the fusion proteins was added at the start of the experiment, and media changes were carried out without fusion proteins once every 2 to 3 days thereafter. In contrast, continuous doses of free IGF-1 were used for the positive control. An untreated control group was also included in the experiments. Experiments were terminated at 3-day, 7-day and 15-day time points. Outcome measures included the biosynthesis rate of sulfated glycosaminoglycans (sGAG), explant metabolic rate, sGAG loss to the culture medium and the explant sGAG content at the end of the experiment.
The metabolic rate of cartilage explants was measured using the Alamar Blue assay (ThermoFisher). Cartilage explants were incubated for 3 hours in a 1× solution of Alamar Blue dissolved in culture medium. At the end of the incubation period, the absorbance of the medium at 570 nm and 600 nm was measured using a microplate reader (Synergy H1 Hybrid Multi-Mode Microplate Reader, BioTek). These readings were used to calculate the percentage reduction of Alamar Blue, which is directly proportional to the explant metabolic rate. These values were first normalized by individual explant weights. Following this, the weight-normalized readings for the treatment groups were normalized by the weight-normalized mean value for the untreated controls. To measure the chondrocyte biosynthesis rate of sulfated glycosaminoglycans (sGAGs), cartilage explants were cultured in the presence of 10 μCi/mL 35S-sulfate radiolabel during the final two days of each experiment. […]

[2] = system: human ankle cartilage explants; assay: Quantitative uptake of fusion proteins in human ankle cartilage (uptake ratio); assay type: in vitro ADME; conditions: 1 μM in PBS + 1% BSA
Protocol: Cartilage explants were incubated in 250 μL of 1 μM solutions of different fusion proteins dissolved in 1×PBS+1% BSA for either 36 hours (FIG. 4A) or for 108 hours (FIG. 4B) (4.5 days). A group with free +9 GFP dissolved in 1×PBS+1% BSA (1 μM concentration) was included as a control for each of these two time points. An additional untreated control was included in these experiments. Cartilage explants were incubated in plain 1×PBS+1% BSA to account for and to correct for any autofluorescence effects. At the end of the incubation in the 1×PBS+1% BSA: The explants were transferred to a 10×PBS+1% BSA bath for 48 hours. The purpose of this was to desorb the GFPs taken up by the explants. The amount of GFPs left behind in the […] bath was quantified through fluorescence measurements. The desorption step in 10×PBS+1% BSA was followed by a second desorption step using fresh 10×PBS+1% BSA just to ensure any GFPs left in the explant after the 1st desorption come out. At the end of each desorption step, the fluorescence of the 10×PBS+1% BSA bath was measured. After the 2nd desorption step, the explants were digested in Proteinase K and their fluorescence was measured. The uptake ratio for the 36 hour and 108 hour experiments was calculated as (FIG. 4C): […]
Cartilage explants that had been equilibrated in culture medium post-harvest were transferred to sterile PBS and allowed to equilibrate for 1 hour before the start of the experiments. Sterile PBS solutions containing 1% bovine serum albumin (BSA) were prepared. Following this, 1 μM solutions of (+9GFP), (+9GFP)-(GGGGS)4-(IGF-1) (SEQ ID NO: 7), (+9GFP)-(EAAAK)3-(IGF-1) (SEQ ID NO: 8) and (+9GFP)-(GGGGS)3-(IGF-1) (SEQ ID NO: 9) were prepared. The BSA was included in the PBS to minimize loss of GFPs in the solution caused by non-specific binding to the plasticware. […] In contrast, use of polypropylene with 1% BSA enabled complete recovery of fluorescence.
At the end of the incubation period, cartilage explants were washed with PBS and transferred to a solution of 10×PBS+1% BSA for desorption. At the same time, the fluorescence of the absorption bath was measured using a plate reader (Synergy H1, Biotek Instruments Inc.) (excitation: 485 nm, emission: 528 nm). […] At the end of the desorption in 10×PBS+1% BSA, cartilage explants were weighed, and the fluorescence of the desorption bath was measured. This fluorescence measurement was used with a standard curve and the explant wet weights to calculate the concentration of GFP inside cartilage explants (mol/mg wet weight). The uptake ratio was calculated as the ratio of GFP concentration inside cartilage (mol/mg wet weight) to the final absorption bath concentration (mol/mL).

**Q.** How did the “aggrecan biosynthesis rate compared to the untreated control” value ([1]; Experiment 3A, ankle, all three single doses (500 nM, 1 μM, 2 μM), 7-day time point) turn out when “(+9GFP)-(EAAAK)3-(IGF-1): fusion protein of +9 GFP and human IGF-1 with rigid (EAAAK)3 linker, SEQ ID NO: 8” was run?
**A.** statistically significantly higher

**Q.** What about the “biosynthesis rate of explants compared to the untreated control” value [1] of the same substance?
**A.** did not increase

**Q.** What about the sGAG biosynthesis rate [1] of the same substance?
**A.** significant increase

**Q.** What about the “elevated biosynthesis rate after single dose, up to Day 7” value [1] of the same substance?
**A.** sustained up to Day 7

**Q.** And the “elevated biosynthesis rate after single dose, up to Day 15” value [1]?
**A.** could not maintain

**Q.** With “IGF-1: free recombinant human IGF-1 (PeproTech), pro-anabolic growth factor used as the positive control” as the substance, how does the “aggrecan biosynthesis rate compared to the untreated control” value ([1]; Experiment 3A, ankle, continuous 40 nM free IGF-1, 3-day time point) read?
**A.** statistically significantly higher

**Q.** And the “aggrecan biosynthesis rate compared to the untreated control” value ([1]; Experiment 3A, ankle, continuous 40 nM free IGF-1, 7-day time point)?
**A.** statistically significantly higher

**Q.** And the “aggrecan biosynthesis rate compared to the untreated control” value ([1]; Experiment 4, ankle, continuous 40 nM free IGF-1, days 5-7)?
**A.** statistically significantly higher

**Q.** What about the “sulfate incorporation rate compared to the untreated control” value ([1]; continuous 39.2 nM free IGF-1, FIG. 19A) of the same substance?
**A.** significantly increased

**Q.** How did the “Uptake ratio (Mean)” value ([2]; 36 hr) turn out when “(+9GFP)-(GGGGS)4-(IGF-1): fusion protein of +9 GFP and human IGF-1 with flexible (GGGGS)4 linker, SEQ ID NO: 7” was run?
**A.** 12.7

**Q.** And the “Uptake ratio (Mean)” value ([2]; 108 hr)?
**A.** 18.3

**Q.** And the “aggrecan biosynthesis rate compared to the untreated control” value ([1]; Experiment 3A, ankle, donor, single 500 nM dose, 3-day time point)?
**A.** statistically significantly higher

**Q.** And the “aggrecan biosynthesis rate compared to the untreated control” value ([1]; Experiment 3A, ankle, single 500 nM dose, 7-day time point)?
**A.** statistically significantly higher

**Q.** What about the “aggrecan biosynthesis rate compared to the untreated control” value ([1]; Experiment 3A, ankle, single 1 μM dose, 7-day time point) of the same substance?
**A.** statistically significantly higher

**Q.** What about the “aggrecan biosynthesis rate compared to the untreated control” value ([1]; Experiment 3A, ankle, single 2 μM dose, 3-day time point) of the same substance?
**A.** statistically significantly higher

**Q.** And the “aggrecan biosynthesis rate compared to the untreated control” value ([1]; Experiment 4, ankle, donor, single 500 nM dose, days 5-7)?
**A.** statistically significantly higher

**Q.** What about the “aggrecan biosynthesis rate compared to the untreated control” value ([1]; Experiment 4, ankle, donor, single 1 μM dose, days 5-7) of the same substance?
**A.** statistically significantly higher

**Q.** And the “biosynthesis rate of explants compared to the untreated control” value [1]?
**A.** did not increase

**Q.** What about the sGAG biosynthesis rate [1] of the same substance?
**A.** significant increase

**Q.** What about the “elevated biosynthesis rate after single dose, up to Day 7” value [1] of the same substance?
**A.** sustained up to Day 7

**Q.** What about the “elevated biosynthesis rate after single dose, up to Day 15” value [1] of the same substance?
**A.** could not maintain
